Assay results from patent US20260308172A1, “TRICYCLIC COMPOUNDS FOR TREATMENT OF BACTERIAL INFECTIONS” (priority 2023, published 2026).
Converted amounts (≈) assume the structure as drawn.

What was measured:
[1] = system: Klebsiella pneumonia ATCC 43816; experiment: Minimal Inhibitory Concentration (MIC) assay, Klebsiella pneumonia ATCC 43816; format: cell-based; settings: Klebsiella pneumoniae, ATCC43816, 20 h, read-out: MIC Klebsiella pneumoniae ATCC43816
Procedure: (§1) The antibacterial activity of the compounds of the present invention was evaluated against the commonly used quality control strain Escherichia coli ATCC 25922 and the rifampin-resistant mutant strain Klebsiella pneumonia ATCC 43816. Both were originally derived from human clinical samples and are available from ATCC (American Type Culture Collection). The in vitro potency of compounds to inhibit Escherichia coli (ATCC 25922) and Klebsiella pneumonia (ATCC 43816) growth was assessed by the MIC (Minimal Inhibitory Concentration) broth dilution method. Specifically compound dilutions were prepared from 10 mM DMSO stock solutions as follows: i) serial 2-fold dilution in 20 μL DMSO were prepared in a master plate (Greiner, Cat No: 651201), ii) 180 μL sterile distilled water was added to each aliquot and iii) 10 μL diluted compounds were transferred into a new assay plate (Costar, 3599).
(§2) Vials of each test microorganisms were maintained frozen in the vapor phase of a liquid nitrogen freezer. Single-use frozen vials of the two strains Escherichia coli ATCC 25922 (KWIKSTIK, 0335K) and Klebsiella pneumonia ATCC 43816, with predetermined CFU/mL, were taken out from the freezer, thawed at room temperature, and diluted in Cation-Adjusted Mueller Hinton Broth (CAMHB) to achieve a final inoculum of 5×10^5 CFU/mL. 90 μL bacteria containing broth was dispensed to the assay plate containing the pre-dispensed compound dilutions and mixed by pipetting 5 times.
(§3) Then the assay plates were incubated for 20 hours at 35° C. in ambient air. Following incubation, the MIC (μg/mL), the lowest concentration of drug that inhibits visible growth of the microorganism was read with the help of a magnification mirror and recorded.

[2] = system: Escherichia coli ATCC 25922; experiment: Minimal Inhibitory Concentration (MIC) assay, Escherichia coli ATCC 25922; format: cell-based; settings: ATCC25922, 20 h, read-out: MIC Escherichia coli ATCC25922
Procedure: as §1, §2, §3

SMILES | MIC [1] [µg/mL] | MIC [2] [µg/mL]
Cc1cc(C(F)(F)F)nc(N2CCN(S(=O)(=O)c3ccc4c(c3)OC[C@@H]3[C@H](CO)OC(=O)N43)CC2)n1 [Example 015, (3R,3aR)-3-(hydroxymethyl)-7-[4-[4-methyl-6-(trifluoromethyl)pyrimidin-2-yl]piperazin-1-yl]sulfonyl-3a,4-dihydro-3H-oxazolo[4,3-c][1,4]benzoxazin-1-one] | 0.76 (≈ 1.44 µM) | 0.5 (≈ 0.944 µM)
NC[C@@H]1OC(=O)N2c3ccc(S(=O)(=O)N4CCN(c5cc(S(=O)(=O)c6ccc(N)cc6)cc(Cl)n5)CC4)cc3OC[C@@H]12 (relative stereo) [Example 004] | 0.26 (≈ 0.409 µM) | 0.52 (≈ 0.819 µM)
NC(=O)CN1CCC(C(F)(F)c2cc(Cl)nc(N3CCN(S(=O)(=O)c4ccc5c(c4)OC[C@@H]4[C@H](CO)OC(=O)N54)CC3)c2)CC1 [Example 056, 2-[4-[[2-[4-[[(3R,3aR)-3-(hydroxymethyl)-1-oxo-3a,4-dihydro-3H-oxazolo[4,3-c][1,4]benzoxazin-7-yl]sulfonyl]piperazin-1-yl]-6-chloro-4-pyridyl]-difluoro-methyl]-1-piperidyl]acetamide] | 0.23 (≈ 0.343 µM) | 0.31 (≈ 0.462 µM)
NC[C@@H]1OC(=O)N2c3ccc(S(=O)(=O)N4CCN(c5cc(C(F)(F)[C@@H]6COCCO6)cc(Cl)n5)CC4)cc3OC[C@H]12 [Example 022, (3S,3aR)-3-(aminomethyl)-7-[4-[6-chloro-4-[[(2S)-1,4-dioxan-2-yl]-difluoro-methyl]-2-pyridyl]piperazin-1-yl]sulfonyl-3a,4-dihydro-3H-oxazolo[4,3-c][1,4]benzoxazin-1-one] | 0.3 (≈ 0.487 µM) | 0.44 (≈ 0.714 µM)
O=C1CCC2COc3cc(S(=O)(=O)N4CCN(c5cc(C(F)(F)F)cc(Cl)n5)CC4)ccc3N12 (stereo not shown) [Example 012, 7-[4-[6-Chloro-4-(trifluoromethyl)-2-pyridyl]piperazin-1-yl]sulfonyl-2,3,3a,4-tetrahydropyrrolo[2,1-c][1,4]benzoxazin-1-one] | – | 0.61 (≈ 1.18 µM)
Nc1ccc(S(=O)(=O)c2cc(Br)nc(N3CCN(S(=O)(=O)c4ccc5c(c4)OCC4CCC(=O)N54)CC3)c2)cc1 (stereo not shown) [Example 014, 7-[4-[4-(4-Aminophenyl)sulfonyl-6-bromo-2-pyridyl]piperazin-1-yl]sulfonyl-2,3,3a,4-tetrahydropyrrolo[2,1-c][1,4]benzoxazin-1-one] | 0.51 (≈ 0.786 µM) | 0.51 (≈ 0.786 µM)
O=C1CCC2COc3cc(S(=O)(=O)N4CCN(c5cc(C(F)(F)[C@H]6CNCCO6)cc(Cl)n5)CC4)ccc3N12 (stereo partly drawn) [Example 030, 7-[4-[6-Chloro-4-[difluoro-[(2R)-morpholin-2-yl]methyl]-2-pyridyl]piperazin-1-yl]sulfonyl-2,3,3a,4-tetrahydropyrrolo[2,1-c][1,4]benzoxazin-1-one] | 0.492 (≈ 0.842 µM) | 0.49 (≈ 0.839 µM)
Nc1ccc(S(=O)(=O)c2cc(Cl)nc(N3CCN(S(=O)(=O)c4ccc5c(c4)OCC4CCC(=O)N54)CC3)c2)cc1 (stereo not shown) [Example 013, 7-[4-[4-(4-Aminophenyl)sulfonyl-6-chloro-2-pyridyl]piperazin-1-yl]sulfonyl-2,3,3a,4-tetrahydropyrrolo[2,1-c][1,4]benzoxazin-1-one] | 0.24 (≈ 0.397 µM) | 0.47 (≈ 0.778 µM)
NC[C@H]1OC(=O)N2c3ccc(S(=O)(=O)N4CCN(c5cc(C(F)(F)[C@H]6CNCCO6)cc(Cl)n5)CC4)cc3OC[C@H]12 [Example 024, (3R,3aR)-3-(aminomethyl)-7-[4-[6-chloro-4-[difluoro-[(2R)-morpholin-2-yl]methyl]-2-pyridyl]piperazin-1-yl]sulfonyl-3a,4-dihydro-3H-oxazolo[4,3-c][1,4]benzoxazin-1-one] | 1.32 (≈ 2.15 µM) | 0.66 (≈ 1.07 µM)
NC[C@@H]1OC(=O)N2c3ccc(S(=O)(=O)N4CCN(c5cc(C(F)(F)[C@H]6CNCCO6)cc(Cl)n5)CC4)cc3OC[C@@H]12 [Example 023, (3S,3aS)-3-(aminomethyl)-7-[4-[6-chloro-4-[difluoro-[(2R)-morpholin-2-yl]methyl]-2-pyridyl]piperazin-1-yl]sulfonyl-3a,4-dihydro-3H-oxazolo[4,3-c][1,4]benzoxazin-1-one] | 0.33 (≈ 0.537 µM) | 0.33 (≈ 0.537 µM)
NC[C@H]1OC(=O)N2c3ccc(S(=O)(=O)N4CCN(c5cc(S(=O)(=O)C6CC6)cc(Cl)n5)CC4)cc3OC[C@@H]12 (relative stereo) [Example 005] | 1 (≈ 1.71 µM) | 0.97 (≈ 1.66 µM)
Cc1cc(C(F)(F)c2cc(Cl)nc(N3CCN(S(=O)(=O)c4ccc5c(c4)OC[C@H]4[C@H](CN)OC(=O)N54)CC3)c2)ccn1 (relative stereo) [Example 019] | 0.28 (≈ 0.451 µM) | 0.29 (≈ 0.467 µM)
O=C1O[C@H](CO)[C@@H]2COc3cc(S(=O)(=O)N4CCN(c5cc(C(F)(F)[C@H]6CNCCO6)cc(Cl)n5)CC4)ccc3N12 (stereo in doubt) [Example 032, cis-7-[4-[6-chloro-4-[difluoro-[(2R)-morpholin-2-yl]methyl]-2-pyridyl]piperazin-1-yl]sulfonyl-3-(hydroxymethyl)-3a,4-dihydro-3H-oxazolo[4,3-c][1,4]benzoxazin-1-one] | 0.241 (≈ 0.391 µM) | 0.24 (≈ 0.39 µM)
NC[C@H]1OC(=O)N2c3ccc(S(=O)(=O)N4CCN(c5cc(C(F)(F)C6COCCO6)cc(Cl)n5)CC4)cc3OC[C@H]12 (stereo in doubt) [Example 017, trans-3-(aminomethyl)-7-[4-[6-chloro-4-[1,4-dioxan-2-yl(difluoro)methyl]-2-pyridyl]piperazin-1-yl]sulfonyl-3a,4-dihydro-3H-oxazolo[4,3-c][1,4]benzoxazin-1-one] | 0.57 (≈ 0.925 µM) | 0.57 (≈ 0.925 µM)
C[N@@+]1(CC(N)=O)CCC[C@H]1C(=O)N[C@H]1CC[C@H](C(F)(F)c2cc(Cl)nc(N3CCN(S(=O)(=O)c4ccc5c(c4)OC[C@@H]4[C@H](CO)OC(=O)N54)CC3)c2)CC1 [Example 058, (1S,2S)—N-[4-[[2-[4-[[(3R,3aR)-3-(hydroxymethyl)-1-oxo-3a,4-dihydro-3H-oxazolo[4,3-c][1,4]benzoxazin-7-yl]sulfonyl]piperazin-1-yl]-6-chloro-4-pyridyl]-difluoro-methyl]cyclohexyl]-1-(2-amino-2-oxo-ethyl)-1-methyl-pyrrolidin-1-ium-2-carboxamide;chloride] | 1.32 | 1.3
CN1CC=C(C(F)(F)c2cc(Cl)nc(N3CCN(S(=O)(=O)c4ccc5c(c4)OC[C@H]4[C@@H](CN)OC(=O)N54)CC3)c2)CC1 (stereo in doubt) [Example 020, cis-3-(aminomethyl)-7-[4-[6-chloro-4-[difluoro-(1-methyl-3,6-dihydro-2H-pyridin-4-yl)methyl]-2-pyridyl]piperazin-1-yl]sulfonyl-3a,4-dihydro-3H-oxazolo[4,3-c][1,4]benzoxazin-1-one] | 0.29 (≈ 0.464 µM) | 0.29 (≈ 0.464 µM)
O=C1O[C@@H](CO)[C@H]2COc3cc(S(=O)(=O)N4CCN(c5cc(C(F)(F)C67CNCC6C7)cc(Cl)n5)CC4)ccc3N12 (stereo partly drawn) [Example 036, (3R,3aR)-7-[4-[4-[3-azabicyclo[3.1.0]hexan-1-yl(difluoro)methyl]-6-chloro-2-pyridyl]piperazin-1-yl]sulfonyl-3-(hydroxymethyl)-3a,4-dihydro-3H-oxazolo[4,3-c][1,4]benzoxazin-1-one] | 0.14 (≈ 0.229 µM) | 0.14 (≈ 0.229 µM)
O=C1O[C@@H](CO)[C@@H]2COc3cc(S(=O)(=O)N4CCN(c5cc(C(F)(F)[C@@H]6CNCCO6)cc(Cl)n5)CC4)ccc3N12 (relative stereo) [Example 050, trans-7-[4-[6-chloro-4-[difluoro-[(2S)-morpholin-2-yl]methyl]-2-pyridyl]piperazin-1-yl]sulfonyl-3-(hydroxymethyl)-3a,4-dihydro-3H-oxazolo[4,3-c][1,4]benzoxazin-1-one] | 0.48 (≈ 0.779 µM) | 0.48 (≈ 0.779 µM)
NC1CC(=O)N2c3ccc(S(=O)(=O)N4CCN(c5cc(C(F)(F)C6COCCO6)cc(Cl)n5)CC4)cc3OCC12 (stereo not shown) [Example 008, 3-Amino-7-[4-[6-chloro-4-[1,4-dioxan-2-yl(difluoro)methyl]-2-pyridyl]piperazin-1-yl]sulfonyl-2,3,3a,4-tetrahydropyrrolo[2,1-c][1,4]benzoxazin-1-one] | 0.5 (≈ 0.833 µM) | 0.5 (≈ 0.833 µM)
CN1CCC(C(F)(F)c2cc(Cl)nc(N3CCN(S(=O)(=O)c4ccc5c(c4)OCC4CCC(=O)N54)CC3)c2)CC1 (stereo not shown) [Example 016, 7-[4-[6-Chloro-4-[difluoro-(1-methyl-4-piperidyl)methyl]-2-pyridyl]piperazin-1-yl]sulfonyl-2,3,3a,4-tetrahydropyrrolo[2,1-c][1,4]benzoxazin-1-one] | 1.86 (≈ 3.12 µM) | 1.9 (≈ 3.19 µM)
NC[C@@H]1OC(=O)N2c3ccc(S(=O)(=O)N4CCN(c5cc(S(=O)(=O)C6CC6)cc(Cl)n5)CC4)cc3OC[C@@H]12 (relative stereo) [Example 003] | 1.94 (≈ 3.32 µM) | 0.97 (≈ 1.66 µM)
CC1COC(C(F)(F)c2cc(Cl)nc(N3CCN(S(=O)(=O)c4ccc5c(c4)OC[C@H]4[C@H](CO)OC(=O)N54)CC3)c2)CN1 (stereo partly drawn) [Example 040, (3R,3aS)-7-[4-[6-chloro-4-[difluoro-(5-methylmorpholin-2-yl)methyl]-2-pyridyl]piperazin-1-yl]sulfonyl-3-(hydroxymethyl)-3a,4-dihydro-3H-oxazolo[4,3-c][1,4]benzoxazin-1-one] | 0.29 (≈ 0.46 µM) | 0.29 (≈ 0.46 µM)
